In PubChem BioAssay (NCI):
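Dose response: 5 concentrations. Exposure: 48 h. Format: 96-well plates. Endpoint: linear interpolation; highest concentration if not reached. Abbreviation: GI50, concentration required for 50% inhibition of growth. TGI: concentration producing complete growth inhibition.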

Key:
Assay in all cases: inhibition of tumour cell growth, NCI panel, 48 h
[1] = tested on: NCI-H23 lung
[2] = tested on: HCT-15 colon
[3] = tested on: IGROV1 ovarian
[4] = tested on: HOP-62 NSCLC
[5] = tested on: NCI-H226 lung
[6] = tested on: OVCAR-8 ovarian
[7] = tested on: EKVX NSCLC
[8] = tested on: K-562 leukemia
[9] = tested on: HCT-116 colon
[10] = tested on: HCC-2998 colon

| SMILES | TGI [1] [µM] | TGI [2] [µM] | TGI [3] [µM] | TGI [4] [µM] | TGI [5] [µM] | TGI [6] [µM] | TGI [7] [µM] | TGI [8] [µM] | TGI [9] [µM] | GI50 [1] [µM] | GI50 [10] [µM] | TGI [10] [µM] | GI50 [2] [µM] | GI50 [3] [µM] | GI50 [4] [µM] | GI50 [5] [µM] | GI50 [6] [nM] | GI50 [8] [nM] | GI50 [9] [nM] | GI50 [7] [nM] |
| --- | --- | --- | --- | --- | --- | --- | --- | --- | --- | --- | --- | --- | --- | --- | --- | --- | --- | --- | --- | --- |
| O=C(O)CNC(=O)c1ccccc1O | > 100 | > 100 | > 100 | > 100 | > 100 | > 100 | > 100 | > 100 | > 100 |  |  |  |  |  |  |  |  |  |  |  |
| Cn1cc(C2=C(c3c4n(c5ccccc35)CC(CN)C4)C(=O)NC2=O)c2ccccc21 (centres undefined) | 11.1 | 15.8 | 9.08 | 11 | 18 | 8.93 |  | 17.9 | 6.22 | 4.38 | 4.01 | 8.02 | 4.33 | 3.52 | 4.56 | 3.93 | 3920 | 1640 | 2320 |  |
| O=C(CCCCC(=O)N/N=C\c1ccccc1Cl)N/N=C\c1ccccc1Cl | > 100 | > 100 | > 100 | 24.6 | > 100 | 30.6 | > 100 | > 100 | > 100 | 13.7 |  |  | 3.08 | 8.79 | 3.22 | 15.4 | 515 | 3020 | 654 | 1730 |
| CCCn1cc(C2=C(c3cn(C)c4ccccc34)C(=O)NC2=O)c2ccccc21 | 17.8 | > 19.2 | > 17 | > 18.4 | 9.78 | > 19.6 |  | > 25 | 8.52 | 2.67 | 4.85 | > 25 | 0.688 | 4.03 | 1.69 | 2.69 | 2010 | 392 | 1240 |  |
| CCOC(=O)C1c2[nH]c3ccccc3c2CCN1C(=O)c1ccco1 (centres undefined) |  | > 10 | > 10 | > 10 |  | > 10 | > 10 | > 10 | > 10 |  |  | > 10 |  |  |  |  |  |  |  |  |
| O=C1OC(c2ccccc2)C2CC3CC4(CCC3CN12)OCCO4 (centres undefined) | > 100 | > 100 | > 100 | > 100 | > 100 | > 100 | > 100 | > 100 | > 100 |  |  |  |  |  |  |  |  |  |  |  |
| O=c1oc2c3ccc4ccccc4c3n(CCN3CCOCC3)c2c2ccccc12 |  |  | > 100 | > 100 |  | > 100 | > 100 |  | > 100 |  |  | > 100 |  |  |  |  |  |  |  |  |
| CN(C)CCCNC(=O)c1cc(NC(=O)CCNC(=O)c2ccc3c(c2)C(=O)c2ccccc2C3=O)cn1C | > 100 |  | > 100 | > 100 | > 100 | > 100 | > 100 | > 100 | > 100 | > 100 | 52.7 | > 100 |  | > 100 | > 100 | > 100 | > 100000 | > 100000 | > 100000 | > 100000 |
